Eleven compounds from paper PMC8629650, “Novel Elongator Protein 2 Inhibitors Mitigating Tumor Necrosis Factor-α Induced Osteogenic Differentiation Inhibition” (BioMed Research International, 2021) can be followed below.

pEC50, pKd: −log10 of the molar value. Read-outs that look alike come from different tables or passages of the source.

The target of one test is T1, mouse ELP2 protein (Mus musculus, UniProt Q91WG4).
T1 sequence (Q91WG4 1-831): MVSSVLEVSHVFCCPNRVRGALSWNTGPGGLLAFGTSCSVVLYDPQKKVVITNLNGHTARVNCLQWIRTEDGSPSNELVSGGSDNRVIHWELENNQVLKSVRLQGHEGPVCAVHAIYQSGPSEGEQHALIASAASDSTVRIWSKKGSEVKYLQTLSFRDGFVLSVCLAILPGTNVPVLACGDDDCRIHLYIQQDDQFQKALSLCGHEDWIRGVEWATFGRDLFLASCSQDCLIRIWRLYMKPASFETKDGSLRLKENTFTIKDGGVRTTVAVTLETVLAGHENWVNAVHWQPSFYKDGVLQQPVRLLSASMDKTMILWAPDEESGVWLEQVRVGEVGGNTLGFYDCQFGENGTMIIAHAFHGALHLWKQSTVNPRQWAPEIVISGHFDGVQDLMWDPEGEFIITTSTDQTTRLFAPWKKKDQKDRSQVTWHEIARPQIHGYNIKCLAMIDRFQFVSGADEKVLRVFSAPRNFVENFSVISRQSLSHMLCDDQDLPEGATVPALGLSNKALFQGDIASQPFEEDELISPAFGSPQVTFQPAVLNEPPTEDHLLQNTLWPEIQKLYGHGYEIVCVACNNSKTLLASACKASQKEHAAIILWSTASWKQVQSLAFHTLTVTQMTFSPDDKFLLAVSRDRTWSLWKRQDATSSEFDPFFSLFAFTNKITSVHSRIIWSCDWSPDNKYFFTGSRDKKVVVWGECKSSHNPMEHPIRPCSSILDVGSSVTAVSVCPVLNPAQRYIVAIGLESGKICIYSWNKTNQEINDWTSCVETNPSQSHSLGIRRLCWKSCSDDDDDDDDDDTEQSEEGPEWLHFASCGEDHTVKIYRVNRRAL
Put plainly: Surface plasmon resonance (SPR) affinity analysis, compounds fixed on the chip. The class given is binding. To be noted: for koff: read-out: Avg Koff; for kon: read-out: Avg Kon; for dissociation rate (in words): excluded from further testing. The method, then: To validate the binding affinity of the candidate compounds with ELP2 protein, we tested the binding affinity through SPR assay. The experiment was performed as previous reported. Briefly, the candidate molecules are crossed onto the chip surface by hydrogen substitution reaction. During the experimental SPR, the chips were first primed with running buffer (1x PBS containing 5% DMSO). […] To validate the reliability of our method, we selected biotin and rapamycin binding with FKBP12 as a system control. Additionally, the solvents DMSO for compounds and PBS (pH = 7.0) for proteins were measured individually as blank controls and background noise controls.
Under the technique of photo-cross-linker biosensor chip, the candidate compounds were immobilized onto the chemically modified chip surface in random orientations and without any attached label or linker. After the compounds were fixed onto the surface of the chip, ELP2 protein solved in PBS were passed over the chip surface. The original sensor gram information was collected in real time.
The raw sensor gram information was collected in real time. The binding of each compound to the ELP2 protein during each cycle is represented by the response unit (RU) of surface resonance.

The test system of test [1] is C2C12 cells. Put plainly: Alkaline phosphatase (ALP) activity under TNF-α-induced osteogenic differentiation inhibition, ID model. The class given is cell-based. The note with it: for effect on TNF-α-induced inhibition (ALP), data not shown: cell model not specified (C2C12 / MC3T3-E1); for effect on TNF-α-induced inhibition of osteoblast differentiation (ALP stain and activity) / pEC50: C2C12 cells; for effect on TNF-α-induced inhibition of osteoblast differentiation (ALP stain and activity): vs. TNF-α group; for pEC50: Mus musculus, ID model, TNF-α. The method, then: (§1) C2C12 cells were kept in DMEM complemented with the 10% fetal dairy serum and 1% penicillin/streptomycin and MC3T3-E1 cells in minimally needed culture medium (MEM, HyClone, GE Healthcare, USA) supplemented with 10% fetal bovine serum and 1% penicillin/streptomycin, were grown individually, and then cultured at 37.0°C, 5% CO2. As previously reported, cells were cultured for differentiation induction in the presence of TNF-α with or without our candidate compounds.
(§2) […] was detected by ALP activity via the alkaline phosphatase assay kit followed by the instruction. A BioTek microplate spectrophotometer was used to assay the apparent density at the wavelength of 405 nm. ALP activity values are equally common in the density protein found in stem cells determined to use the BCA Protein Assay Kit.
(§3) To determine the effect of the candidate compounds on TNF-α-induced osteogenic differentiation inhibition, we examined the activity of osteogenic marker alkaline phosphatase in the cells. As mentioned in Materials and Method, cells were grown in an adequate osteoblast differentiation environment and tested the alkaline phosphatase activity.
(§4) Figure 3 The ALP stain and activity measurements of 2# and 5# candidate on C2C12 and MC3T3-E1 cell osteogenic differentiations. 2# and 5# compounds show remarkable mitigation against TNF-α induced ALP activity inhibition. The ALP staining observation in each group (a, c). The relative ALP activity were measured from the cell lysates of each group (b, d). Data are mean ± SD; ^∗P < 0.05, ^∗∗P < 0.01, each experiment group vs. the TNF-α treatment cell group.

Test [2] deals with MC3T3-E1 cells. Put plainly: Alkaline phosphatase (ALP) activity under TNF-α-induced osteogenic differentiation inhibition, SD model. The test is classed as cell-based. To be noted: for pEC50: Mus musculus, SD model, TNF-α; for effect on TNF-α-induced inhibition of osteoblast differentiation (ALP stain and activity): vs. TNF-α group. The method, then: as §1, §2, §3, §4
Test [3] deals with C2C12 cells. Put plainly: Mineralization assessment by Alizarin Red S staining. The test is classed as cell-based. The note with it: day 35, vs. TNF-α control. An excerpt:
(§5) As reported, in two differentiation cell models, the culture medium was replaced every 3 days till 35th day. Mineralization of the cell was found by staining using the Optimized Alizarin Red S Stain Kit by the kit instructions.
(§6) In order to test the function of the candidate compounds on the mineralization activity during osteoblasts differentiation, the self-differentiation (SD) model and inflammatory-differentiated (ID) model cells were stained with Alizarin Red S staining on day 35 after differentiation induction, and the mineralization activity of each group can be estimated by the number of stained spots.
(§7) Figure 5 Alizarin Red S staining of differentiated osteogenic cells, the self-differentiation (SD) model, and inflammatory-differentiated (ID) model cells were stained with Alizarin Red S staining on day 35 after differentiation induction, and the mineralization activity of each group can be estimated by the number of stained spots (bar = 50 μm).

Test [4] concerns MC3T3-E1 cells. The test is described as above. The note with it: day 35, vs. TNF-α control. The class given is cell-based.
Text: as §5, §6, §7

In test [5] the test system is COL-I, ALP, OCN, BMP-2, RUNX-2 and OSX genes in C2C12 and MC3T3-E1 cells. Put plainly: Q-PCR of osteogenic differentiation marker genes after TNF-α stimulation. The test is classed as cell-based. To be noted: day 7, C2C12 and MC3T3-E1, vs. TNF-α-stimulated cells. The method, then:
The total mRNA was extracted from cell culture using TRIzol reagent (Thermo Scientific USA). The concentration and quality of the RNA were checked using a NanoDrop™ 8000 spectrophotometer, and cDNA was then synthesized. Gene expression according to the recommendations of the reverse transcription kit was detected. Host gene β-actin was selected as the reference gene, and the gene expression level analysis was calculated by the 2^-ΔΔCt quantification method.
(§8) In order to investigate the changes in osteogenic differentiation associated molecules including COL-I, ALP, OCN, BMP-2, RUNX-2, and OSX genes, we performed Q-PCR and Western blot analysis on the differentiation cellular models on the 7th day after osteoblast cell differentiation are shown in Table 2. […] The level of above gene expression was raised in the 2# and the 5# candidate-treated cell with cell morphology phenotype differentiation when compared to the cell stimulated with TNF-α (Figure 6). A further study of the expression of osteoblastic markers at the protein level was performed using Western blot.
Figure 6 Effect of 2# and 5# treatment on TNF-α-stimulated C2C12 (a) and MC3T3-E1 (b) cell osteoblast differentiation-associated marker gene expression. Q-PCR analysis in the differentiation was conducted on the 7th day after osteoblast cell differentiation in the ID and SD models. […]

For test [6], the system named is osteogenic differentiation marker proteins in differentiation model cells. Put plainly: Western blot of osteogenic differentiation markers after TNF-α treatment. The class given is cell-based. To be noted: day 7, vs. TNF-α treatment. The method, then:
After treatment, using PBS to wash the cells, the cells were lysed with RIPA lysis buffer. The cell lysate was then separated by SDS-PAGE. All proteins were transferred to PVDF membranes (Bio-Rad, USA). The PVDF membrane was then blocked with 5% skim milk in Tris-buffered physiological saline -0.1% Tween-20 for 1 hour and incubated with the following primary antibody: anti-ALP antibody (rabbit), anti-COL-1 antibody (mouse), anti-OCN antibody (mouse), anti-BMP-2 antibody (mouse), anti-Runx2 antibody (mouse), Anti-Osterix (rabbit), and anti-β-actin (mouse), followed by suitable horseradish peroxidase- (HRP-) labeled secondary antibody, blocking buffer for goat anti-rabbit IgG. Images were captured using G&E imaging system.
as §8, with “blot. […]” for “blot.”

Where [7] appears, read: SPR, Elp2 protein 200 nM to 3200 nM passed over the immobilized compound, read-out: Avg KD.
The mark [8] stands for this setting: SPR, Elp2 protein 200 nM to 3200 nM passed over the immobilized compound.

In the case of `CC1CCCC2(C)CC3OC(=O)C(CN4CCN(C(=O)c5ccco5)CC4)C3C=C12` (centres unmarked) [8#], the pKd on mouse ELP2 protein (setting [7]) is 7.03. Also, at mouse ELP2 protein (setting [8]), the koff is 0.00105 s⁻¹ and the on-rate constant (kon) was 11200 M⁻¹ s⁻¹. In addition, the “effect on TNF-α-induced inhibition (ALP), data not shown” value in the test with C2C12 cells [1] was “only slightly easing of the inhibition resulting from TNF-α”.
The like results for `Cc1cc(O)cc(=O)n1C[C@@H](O)c1cccc(O)c1` [11#] were, in that order, 5.46, 0.000774 s⁻¹, 222 M⁻¹ s⁻¹ and “only slightly easing of the inhibition resulting from TNF-α”.
`O=C1c2ccccc2-c2c1c1ccccc1c(=O)n2NCCO` [2#]: the negative logarithm of the Kd (pKd) at mouse ELP2 protein (setting [7]) is 5.84. Further, at mouse ELP2 protein (setting [8]), the koff was found to be 0.000241 s⁻¹ and the kon came to 165 M⁻¹ s⁻¹. In addition, in the test on C2C12 cells [1], the “effect on TNF-α-induced inhibition of osteoblast differentiation (ALP stain and activity)” value is on record as “significant ease to TNF-α-induced inhibition of osteoblast differentiation”; the negative-log EC50 (pEC50) is 4.83. Moreover, in the test on MC3T3-E1 cells [2], the pEC50 was 4.53; the “effect on TNF-α-induced inhibition of osteoblast differentiation (ALP stain and activity)” value is reported as “significant ease to TNF-α-induced inhibition of osteoblast differentiation”. Also, the “mineralization activity (Alizarin Red S stained spots)” value (“mineralization activity” for short) in the test on C2C12 cells [3] is “increased the red spot on the cell surface”. For the same compound, the “mineralization activity” value with MC3T3-E1 cells [4] is reported as “increased the red spot on the cell surface”. Further, the “expression level of osteogenic differentiation marker genes (COL-I, ALP, OCN, BMP-2, RUNX-2, OSX)” value in test [5] is “raised”. Further, the “expression of osteogenic differentiation marker proteins” value in test [6] was “increased”.
As for `COc1cccc(N2Cc3nn(Cc4ccccc4Cl)c(=O)n3C2=O)c1` [6#], at mouse ELP2 protein (setting [8]), the koff is 0.415 s⁻¹ and the kon turned out to be 2.54 M⁻¹ s⁻¹.
The like results for `COc1ccc2c(c1)C(CCn1c(C)cc(O)cc1=O)C(=O)N2` (centres unmarked) [10#] were, in that order, 0.504 s⁻¹ and 2.18 M⁻¹ s⁻¹.
Take `COc1cc(CCN)c(-c2csc(-c3ccc(O)cc3)n2)cc1OC` [5#]: at mouse ELP2 protein (setting [7]), the negative logarithm of the Kd (pKd) is 5.48. Further, on mouse ELP2 protein (setting [8]), the koff came to 0.0122 s⁻¹. Also, the association rate constant (kon) at mouse ELP2 protein (setting [8]) was 3720 M⁻¹ s⁻¹. Also, the “effect on TNF-α-induced inhibition of osteoblast differentiation (ALP stain and activity)” value with C2C12 cells [1] and in the test on MC3T3-E1 cells [2] was “significant ease to TNF-α-induced inhibition of osteoblast differentiation” each time. Further, the pEC50 in the test on C2C12 cells [1] is 4.92; with MC3T3-E1 cells [2], 4.74. The “mineralization activity” value in the test on C2C12 cells [3] and in the test with MC3T3-E1 cells [4] was “increased the red spot on the cell surface” each time. Besides, the “expression level of osteogenic differentiation marker genes (COL-I, ALP, OCN, BMP-2, RUNX-2, OSX)” value in test [5] is reported as “raised”. The “expression of osteogenic differentiation marker proteins” value in test [6] is “increased”.
As to `COCn1ncnc1NCCn1c(C)cc(O)cc1=O` [4#], at mouse ELP2 protein (setting [8]), the off-rate constant (koff) was 0.342 s⁻¹ and the on-rate constant (kon) stood at 1.85 M⁻¹ s⁻¹.
On to `Cc1cc(=O)c2c(o1)[C@H](c1cccc(O)c1)CC(=O)O2` [3#], for which, at mouse ELP2 protein (setting [8]), the koff was determined as 0.45 s⁻¹ and the kon is 2.31 M⁻¹ s⁻¹.
`COc1ccc([C@H](CC(=O)N[C@@H](Cc2ccccc2)C(N)=O)c2oc(C)cc(=O)c2O)cc1` [1#]: on mouse ELP2 protein (setting [7]), the pKd is 3.93. On mouse ELP2 protein (setting [8]), the koff is 0.234 s⁻¹ and the kon came out at 1980 M⁻¹ s⁻¹. Moreover, the “dissociation rate (in words)” value on mouse ELP2 protein (SPR) is recorded as “much faster dissociation rates”.
On to `COc1ccc(C(CC(=O)NC(C)C(N)=O)c2oc(C)cc(=O)c2O)cc1` (centres unmarked) [7#], for which, at mouse ELP2 protein, the negative logarithm of the Kd (pKd) was 5.50, the koff turned out to be 0.0011 s⁻¹ and the kon amounted to 347 M⁻¹ s⁻¹. In the test with C2C12 cells [1], the “effect on TNF-α-induced inhibition (ALP), data not shown” value is recorded as “only slightly easing of the inhibition resulting from TNF-α”.
Turning to `Cc1cc(O)cc(=O)n1C[C@H](O)c1ccc(O)cc1` [9#], on mouse ELP2 protein (setting [7]), the negative-log Kd (pKd) is 3.83. Besides, at mouse ELP2 protein (setting [8]), the koff is 0.075 s⁻¹ and the on-rate constant (kon) came to 502 M⁻¹ s⁻¹. For the same compound, the “dissociation rate (in words)” value on mouse ELP2 protein (SPR) is listed as “much faster dissociation rates”.
